From ChEMBL document CHEMBL1149354, “A new series of pyridinyl-alkynes as antagonists of the metabotropic glutamate receptor 5 (mGluR5)” (Bioorg Med Chem Lett, 2006)

Assays:
[1] = target: Metabotropic glutamate receptor 5 (Homo sapiens, UniProt P41594); test: Activity at human mGluR5 assessed as effect on glutamate-induced calcium ion mobilization by FLIPR; type: functional
[2] = target: Metabotropic glutamate receptor 1 (Homo sapiens, UniProt Q13255); test: Activity at human mGluR1 assessed as effect on glutamate-induced calcium ion mobilization by FLIPR; type: functional
Sequence of Metabotropic glutamate receptor 1 (Q13255 whole entry): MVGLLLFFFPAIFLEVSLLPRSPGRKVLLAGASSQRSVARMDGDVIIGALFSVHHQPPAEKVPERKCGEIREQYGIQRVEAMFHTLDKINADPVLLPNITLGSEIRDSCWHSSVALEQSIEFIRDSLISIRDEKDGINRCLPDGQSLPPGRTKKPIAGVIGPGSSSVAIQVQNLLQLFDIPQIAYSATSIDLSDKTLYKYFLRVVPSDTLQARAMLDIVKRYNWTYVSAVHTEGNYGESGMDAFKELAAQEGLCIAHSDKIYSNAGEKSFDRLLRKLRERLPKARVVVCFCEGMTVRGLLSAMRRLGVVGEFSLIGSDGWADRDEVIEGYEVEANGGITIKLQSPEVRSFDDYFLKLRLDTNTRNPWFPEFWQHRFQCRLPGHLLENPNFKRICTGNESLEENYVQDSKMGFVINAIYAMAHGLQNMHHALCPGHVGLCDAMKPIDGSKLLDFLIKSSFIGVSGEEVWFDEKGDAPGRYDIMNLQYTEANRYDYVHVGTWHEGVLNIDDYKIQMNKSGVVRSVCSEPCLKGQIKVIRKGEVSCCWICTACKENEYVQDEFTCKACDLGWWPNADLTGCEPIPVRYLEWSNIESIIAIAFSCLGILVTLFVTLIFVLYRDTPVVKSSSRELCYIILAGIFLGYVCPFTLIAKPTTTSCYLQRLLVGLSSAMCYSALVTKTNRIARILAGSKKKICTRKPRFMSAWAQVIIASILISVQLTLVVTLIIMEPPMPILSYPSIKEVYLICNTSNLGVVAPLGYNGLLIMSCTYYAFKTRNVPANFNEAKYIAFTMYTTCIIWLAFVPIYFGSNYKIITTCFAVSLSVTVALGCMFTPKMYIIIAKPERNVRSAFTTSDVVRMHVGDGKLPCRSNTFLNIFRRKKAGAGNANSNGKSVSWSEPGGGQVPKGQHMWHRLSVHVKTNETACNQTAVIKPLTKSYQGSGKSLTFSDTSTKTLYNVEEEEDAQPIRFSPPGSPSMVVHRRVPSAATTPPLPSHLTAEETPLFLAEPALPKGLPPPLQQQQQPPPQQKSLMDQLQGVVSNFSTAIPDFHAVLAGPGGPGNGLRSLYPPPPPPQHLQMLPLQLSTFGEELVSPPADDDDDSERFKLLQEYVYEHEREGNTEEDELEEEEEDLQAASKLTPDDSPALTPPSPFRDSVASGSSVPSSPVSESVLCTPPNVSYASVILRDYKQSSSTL

[3] = Intrinsic clearance in rat liver microsomes; type: ADME, Microsome

Sequence of Metabotropic glutamate receptor 5 (P41594 whole entry): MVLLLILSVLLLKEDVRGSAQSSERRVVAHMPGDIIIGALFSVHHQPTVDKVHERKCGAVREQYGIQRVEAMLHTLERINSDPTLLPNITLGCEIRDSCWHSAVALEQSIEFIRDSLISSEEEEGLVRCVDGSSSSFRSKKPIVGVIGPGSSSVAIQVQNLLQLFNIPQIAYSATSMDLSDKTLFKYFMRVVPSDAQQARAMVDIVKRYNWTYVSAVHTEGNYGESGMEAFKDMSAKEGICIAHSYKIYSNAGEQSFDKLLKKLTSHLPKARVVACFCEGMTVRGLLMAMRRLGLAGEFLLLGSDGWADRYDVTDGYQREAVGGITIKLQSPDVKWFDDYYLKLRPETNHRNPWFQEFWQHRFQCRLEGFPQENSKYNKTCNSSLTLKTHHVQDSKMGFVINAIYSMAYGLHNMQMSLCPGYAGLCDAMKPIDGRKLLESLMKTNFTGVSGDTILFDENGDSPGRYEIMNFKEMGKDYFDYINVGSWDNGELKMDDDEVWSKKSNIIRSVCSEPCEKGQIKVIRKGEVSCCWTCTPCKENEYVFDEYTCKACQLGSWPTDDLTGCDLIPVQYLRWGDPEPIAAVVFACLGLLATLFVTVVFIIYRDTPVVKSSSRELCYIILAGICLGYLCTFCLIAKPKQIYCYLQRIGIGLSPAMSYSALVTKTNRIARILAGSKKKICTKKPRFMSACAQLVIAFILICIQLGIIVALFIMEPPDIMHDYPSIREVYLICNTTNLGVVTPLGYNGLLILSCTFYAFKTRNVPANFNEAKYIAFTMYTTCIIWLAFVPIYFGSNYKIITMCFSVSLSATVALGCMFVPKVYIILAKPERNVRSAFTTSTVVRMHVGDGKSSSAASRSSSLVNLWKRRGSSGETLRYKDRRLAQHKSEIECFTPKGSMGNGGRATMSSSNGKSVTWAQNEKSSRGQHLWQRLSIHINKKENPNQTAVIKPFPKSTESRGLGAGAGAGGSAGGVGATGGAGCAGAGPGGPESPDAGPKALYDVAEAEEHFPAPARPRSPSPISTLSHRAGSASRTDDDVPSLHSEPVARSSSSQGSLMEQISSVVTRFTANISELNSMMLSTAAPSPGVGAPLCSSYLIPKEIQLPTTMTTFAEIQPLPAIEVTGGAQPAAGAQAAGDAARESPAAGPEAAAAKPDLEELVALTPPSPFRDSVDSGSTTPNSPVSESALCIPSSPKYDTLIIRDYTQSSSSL

CCC(O)(CO)c1cc(F)cc(OCC#Cc2ccccn2)c1 (stereo not drawn)
IC50 [1]: 300 nM | IC50 [2]: ≥ 10000 nM

COc1cccc(OCC#Cc2ccccn2)c1
IC50 [1]: 1540 nM | IC50 [2]: > 10000 nM

Cc1cccc(C#CCOc2ccc(Cl)cc2)n1
IC50 [1]: 102 nM

Cc1ccc(OCC#Cc2cccc(C)n2)cc1
IC50 [1]: 115 nM

COc1cccc(OCC#Cc2cccc(C)n2)c1
IC50 [1]: 397 nM | IC50 [2]: > 10000 nM

Cc1cccc(C#CCOc2cccnc2)n1
IC50 [1]: > 10000 nM

COc1cccc(OCC#Cc2cccc(OC)n2)c1
IC50 [1]: > 10000 nM

COc1cccc(OCC#Cc2nccs2)c1
IC50 [1]: > 10000 nM

COc1cccc(OCC#Cc2ncccc2C)c1
IC50 [1]: > 10000 nM

Cc1cccc(C#CCOc2ccc(Cl)c(Cl)c2)n1
microsomal CLint [3]: 278 µL/min/mg | IC50 [1]: 15 nM

Cc1cccc(C#CCOc2ccccc2Cl)n1
IC50 [1]: > 3000 nM

COc1cccc(OCC#Cc2cnccn2)c1
IC50 [1]: > 10000 nM

COc1cccc(OCC#Cc2ccncc2)c1
IC50 [1]: > 10000 nM

Cc1ccc(OCC#Cc2cccc(C)n2)cn1
IC50 [1]: 2490 nM

Cc1cccc(C#CCOc2ccccc2)n1
IC50 [1]: > 10000 nM

Cc1cccc(C#CCOc2cccc([N+](=O)[O-])c2)n1
IC50 [1]: 416 nM

COc1cccc(OCC#Cc2cc(C)ccn2)c1
IC50 [1]: > 10000 nM

Cc1cccc(C#CCOc2cc(=O)[nH]c3ccccc23)n1
IC50 [1]: 825 nM

COC(=O)c1cncc(OCC#Cc2cccc(C)n2)c1
IC50 [1]: 1490 nM

COc1ccc(OCC#Cc2cccc(C)n2)cc1
IC50 [1]: 455 nM

Cc1cccc(C#CCOc2ccc3c(c2)CCCC3)n1
IC50 [1]: 36 nM

Cc1cccc(C#CCOc2ccc(C(C)C)cc2)n1
IC50 [1]: 83 nM

Cc1cccc(C#CCOc2cccc(Cl)c2)n1
IC50 [1]: 101 nM

COc1cccc(OCC#Cc2ccc(C)cn2)c1
IC50 [1]: 7930 nM
